Experimental data taken from patent publication US9771370B2, “Compounds for the inhibition of indoleamine-2,3-dioxygenase” (Merck Patent GmbH, priority 2014, dated 2017).

Biological target: Recombinant human IDO (Homo sapiens, UniProt P14902)
Assay: Bridge-IT tryptophan fluorescence assay of human IDO-1 inhibition
Format: biochemical
Details: recombinant human IDO 7.5 nM, L-tryptophan
How it was run: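 One variant ran L-Trp at 100 μM for 90 min at 37 °C. The other pre-incubated compound for 30 min at 25 °C, then ran 50 μM L-Trp for 60 min at 25 °C.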

Chain of Recombinant human IDO (P14902 whole entry): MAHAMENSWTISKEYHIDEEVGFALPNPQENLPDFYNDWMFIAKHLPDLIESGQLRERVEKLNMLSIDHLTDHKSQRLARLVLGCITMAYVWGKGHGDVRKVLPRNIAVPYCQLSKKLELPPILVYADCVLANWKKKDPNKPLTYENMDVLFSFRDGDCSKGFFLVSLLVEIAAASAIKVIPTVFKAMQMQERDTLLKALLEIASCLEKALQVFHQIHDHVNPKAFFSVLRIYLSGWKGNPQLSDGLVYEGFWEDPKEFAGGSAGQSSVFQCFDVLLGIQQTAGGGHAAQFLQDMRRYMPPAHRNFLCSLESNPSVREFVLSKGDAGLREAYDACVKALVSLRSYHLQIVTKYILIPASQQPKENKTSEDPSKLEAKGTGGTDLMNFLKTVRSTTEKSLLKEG

| IC50 | Structure (SMILES) |
| --- | --- |
| < 100 nM | OC1(C2CCC(F)(CCC3c4ccccc4-c4cncn43)CC2)CC1 (single isomer, unassigned) [Compound 60d, 1-[4-fluoro-4-[2-[5H-imidazo[4,3-a]isoindol-5-yl]ethyl]cyclohexyl]cyclopropan-1-ol] |
| > 1000 nM | CC(C)(O)C1CCC(F)(CCC2c3ccccc3-c3cncn32)CC1 (single isomer, unassigned) [Compound 61a, 2-[4-fluoro-4-[2-[5H-imidazo[4,3-a]isoindol-5-yl]ethyl]cyclohexyl]propan-2-ol] |
| > 1000 nM | CC(C)(O)C1CCC(F)(CCC2c3ccccc3-c3cncn32)CC1 (single isomer, unassigned) [Compound 61b, 2-[4-fluoro-4-[2-[5H-imidazo[4,3-a]isoindol-5-yl]ethyl]cyclohexyl]propan-2-ol] |
| < 100 nM | CC(C)(O)C1CCC(F)(CCC2c3ccccc3-c3cncn32)CC1 (single isomer, unassigned) [Compound 61c, 2-[4-fluoro-4-[2-[5H-imidazo[4,3-a]isoindol-5-yl]ethyl]cyclohexyl]propan-2-ol] |
| < 100 nM | CC(C)(O)C1CCC(F)(CCC2c3ccccc3-c3cncn32)CC1 (single isomer, unassigned) [Compound 61d, 2-[4-fluoro-4-[2-[5H-imidazo[4,3-a]isoindol-5-yl]ethyl]cyclohexyl]propan-2-ol] |
| 100 to 1000 nM | OC(CC1CCCCC1)CC1c2ncccc2-c2cncn21 (single isomer, unassigned) [Compound 62a, 1-cyclohexyl-3-[4,6,9-triazatricyclo[6.4.0.0^[2,6]]dodeca-1(8),2,4,9,11-pentaen-7-yl]propan-2-ol] |
| > 1000 nM | OC(CC1CCCCC1)CC1c2ncccc2-c2cncn21 (single isomer, unassigned) [Compound 62c, 1-cyclohexyl-3-[4,6,9-triazatricyclo[6.4.0.0^[2,6]]dodeca-1(8),2,4,9,11-pentaen-7-yl]propan-2-ol] |
| > 1000 nM | OC(CC1CCCCC1)CC1c2ncccc2-c2cncn21 (single isomer, unassigned) [Compound 62d, 1-cyclohexyl-3-[4,6,9-triazatricyclo[6.4.0.0^[2,6]]dodeca-1(8),2,4,9,11-pentaen-7-yl]propan-2-ol] |
| > 1000 nM | NC(=O)C1CCC(C(O)CC2c3ncccc3-c3cncn32)CC1 (single isomer, unassigned) [Compound 63b, 4-[1-hydroxy-2-[4,6,9-triazatricyclo[6.4.0.0^[2,6]]dodeca-1(8),2,4,9,11-pentaen-7-yl]ethyl]cyclohexane-1-carboxamide] |
| > 1000 nM | NC(=O)C1CCC(C(O)CC2c3ncccc3-c3cncn32)CC1 (single isomer, unassigned) [Compound 63c, 4-[1-hydroxy-2-[4,6,9-triazatricyclo[6.4.0.0^[2,6]]dodeca-1(8),2,4,9,11-pentaen-7-yl]ethyl]cyclohexane-1-carboxamide] |
| > 1000 nM | NC(=O)C1CCC(C(O)CC2c3ncccc3-c3cncn32)CC1 (single isomer, unassigned) [Compound 63d, 4-[1-hydroxy-2-[4,6,9-triazatricyclo[6.4.0.0^[2,6]]dodeca-1(8),2,4,9,11-pentaen-7-yl]ethyl]cyclohexane-1-carboxamide] |
| > 1000 nM | CC1(C)CCC(F)(CCC2c3ncncc3-c3cncn32)CC1 (single isomer, unassigned) [Compound 66a, 7-[2-(1-fluoro-4,4-dimethylcyclohexyl)ethyl]-4,6,9,11-tetraazatricyclo[6.4.0.0^[2,6]]dodeca-1(8),2,4,9,11-pentaene] |
| > 1000 nM | CC1(C)CCC(F)(CCC2c3ncncc3-c3cncn32)CC1 (single isomer, unassigned) [Compound 66b, 7-[2-(1-fluoro-4,4-dimethylcyclohexyl)ethyl]-4,6,9,11-tetraazatricyclo[6.4.0.0^[2,6]]dodeca-1(8),2,4,9,11-pentaene] |
| > 1000 nM | OC(CC1c2ncncc2-c2cncn21)C1CCCCC1 (single isomer, unassigned) [Compound 67b, 1-cyclohexyl-2-[4,6,9,11-tetraazatricyclo[6.4.0.0^[2,6]]dodeca-1(8),2,4,9,11-pentaen-7-yl]ethan-1-ol] |
| > 1000 nM | OC(CC1c2ncncc2-c2cncn21)C1CCCCC1 (single isomer, unassigned) [Compound 67c, 1-cyclohexyl-2-[4,6,9,11-tetraazatricyclo[6.4.0.0^[2,6]]dodeca-1(8),2,4,9,11-pentaen-7-yl]ethan-1-ol] |
| 100 to 1000 nM | OC(CC1c2nc(OC3CC3)ccc2-c2cncn21)C1CCCCC1 (single isomer, unassigned) [Compound 68a, 1-cyclohexyl-2-[10-cyclopropoxy-4,6,9-triazatricyclo[6.4.0.0^[2,6]]dodeca-1(8),2,4,9,11-pentaen-7-yl]ethan-1-ol] |
| > 1000 nM | OC(CC1c2nc(OC3CC3)ccc2-c2cncn21)C1CCCCC1 (single isomer, unassigned) [Compound 68c, 1-cyclohexyl-2-[10-cyclopropoxy-4,6,9-triazatricyclo[6.4.0.0^[2,6]]dodeca-1(8),2,4,9,11-pentaen-7-yl]ethan-1-ol] |
| 100 to 1000 nM | OC(CC1c2nc(OC3CC3)ccc2-c2cncn21)C1CCC(F)(F)CC1 (single isomer, unassigned) [Compound 69a, 2-[10-cyclopropoxy-4,6,9-triazatricyclo[6.4.0.0^[2,6]]dodeca-1(8),2,4,9,11-pentaen-7-yl]-1-(4,4-difluorocyclohexyl)ethan-1-ol] |
| > 1000 nM | OC(CC1c2nc(OC3CC3)ccc2-c2cncn21)C1CCC(F)(F)CC1 (single isomer, unassigned) [Compound 69b, 2-[10-cyclopropoxy-4,6,9-triazatricyclo[6.4.0.0^[2,6]]dodeca-1(8),2,4,9,11-pentaen-7-yl]-1-(4,4-difluorocyclohexyl)ethan-1-ol] |
| > 1000 nM | OC(CC1c2nc(OC3CC3)ccc2-c2cncn21)C1CCC(F)(F)CC1 (single isomer, unassigned) [Compound 69c, 2-[10-cyclopropoxy-4,6,9-triazatricyclo[6.4.0.0^[2,6]]dodeca-1(8),2,4,9,11-pentaen-7-yl]-1-(4,4-difluorocyclohexyl)ethan-1-ol] |
| > 1000 nM | OC(CC1c2nc(OC3CC3)ccc2-c2cncn21)C1CCC(F)(F)CC1 (single isomer, unassigned) [Compound 69d, 2-[10-cyclopropoxy-4,6,9-triazatricyclo[6.4.0.0^[2,6]]dodeca-1(8),2,4,9,11-pentaen-7-yl]-1-(4,4-difluorocyclohexyl)ethan-1-ol] |
| > 1000 nM | FC1(CCC2c3c(Cl)cccc3-c3cncn32)CCCCC1 (single isomer, unassigned) [Compound 70a, 6-chloro-5-[2-(1-fluorocyclohexyl)ethyl]-5H-imidazo[4,3-a]isoindole] |
| 100 to 1000 nM | FC1(CCC2c3c(Cl)cccc3-c3cncn32)CCCCC1 (single isomer, unassigned) [Compound 70b, 6-chloro-5-[2-(1-fluorocyclohexyl)ethyl]-5H-imidazo[4,3-a]isoindole] |
| 100 to 1000 nM | OC1CCC(F)(CCC2c3c(Cl)cccc3-c3cncn32)CC1 (single isomer, unassigned) [Compound 71a, 4-[2-[6-chloro-5H-imidazo[4,3-a]isoindol-5-yl]ethyl]-4-fluorocyclohexan-1-ol] |
